Laboratory results as given in PMC5666424, “Marine-Derived 2-Aminoimidazolone Alkaloids. Leucettamine B-Related Polyandrocarpamines Inhibit Mammalian and Protozoan DYRK & CLK Kinases” (Marine Drugs, 2017).

Assays:
Experiment in all cases: KinomeScan
Assay type in all cases: binding
Conditions in all cases: 1 μM
EPHA3 = molecular target: T1, EPHA3 (Homo sapiens, UniProt P29320)
T1 construct: purchased DiscoverX (KINOMEscan)

EPHB3 = molecular target: T2, EPHB3 (Homo sapiens, UniProt P54753)
T2 construct: purchased DiscoverX (KINOMEscan)

NEK3 = molecular target: T3, NEK3 (Homo sapiens, UniProt P51956)
T3 construct: purchased DiscoverX (KINOMEscan)

EPHB4 = molecular target: T4, EPHB4 (Homo sapiens, UniProt P54760)
T4 construct: purchased DiscoverX (KINOMEscan)

ERK3 = molecular target: T5, ERK3 (Homo sapiens, UniProt Q16659)
T5 construct: purchased DiscoverX (KINOMEscan)

OSR1 = molecular target: T6, OSR1 (Homo sapiens, UniProt O95747)
T6 construct: purchased DiscoverX (KINOMEscan)
T6 sequence (O95747 whole entry): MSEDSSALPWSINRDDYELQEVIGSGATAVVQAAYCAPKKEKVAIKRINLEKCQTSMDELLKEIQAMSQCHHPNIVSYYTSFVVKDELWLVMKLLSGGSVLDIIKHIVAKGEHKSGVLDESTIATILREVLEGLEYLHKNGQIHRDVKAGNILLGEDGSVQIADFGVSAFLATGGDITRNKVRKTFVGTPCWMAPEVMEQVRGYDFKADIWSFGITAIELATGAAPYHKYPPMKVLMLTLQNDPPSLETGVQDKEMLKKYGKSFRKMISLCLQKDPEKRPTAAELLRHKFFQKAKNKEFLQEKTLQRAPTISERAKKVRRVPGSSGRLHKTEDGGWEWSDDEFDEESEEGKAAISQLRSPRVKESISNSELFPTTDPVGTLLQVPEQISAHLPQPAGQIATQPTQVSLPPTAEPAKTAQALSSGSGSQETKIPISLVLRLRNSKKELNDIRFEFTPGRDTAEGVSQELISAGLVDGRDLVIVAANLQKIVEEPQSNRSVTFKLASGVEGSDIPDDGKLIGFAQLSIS

CDC2L5 = molecular target: T7, CDC2L5 (Homo sapiens, UniProt Q14004)
T7 construct: purchased DiscoverX (KINOMEscan)

DMPK = molecular target: T8, DMPK (Homo sapiens, UniProt Q09013)
T8 construct: purchased DiscoverX (KINOMEscan)

MAK = molecular target: T9, MAK (Homo sapiens, UniProt P20794)
T9 construct: purchased DiscoverX (KINOMEscan)
T9 sequence (P20794 whole entry): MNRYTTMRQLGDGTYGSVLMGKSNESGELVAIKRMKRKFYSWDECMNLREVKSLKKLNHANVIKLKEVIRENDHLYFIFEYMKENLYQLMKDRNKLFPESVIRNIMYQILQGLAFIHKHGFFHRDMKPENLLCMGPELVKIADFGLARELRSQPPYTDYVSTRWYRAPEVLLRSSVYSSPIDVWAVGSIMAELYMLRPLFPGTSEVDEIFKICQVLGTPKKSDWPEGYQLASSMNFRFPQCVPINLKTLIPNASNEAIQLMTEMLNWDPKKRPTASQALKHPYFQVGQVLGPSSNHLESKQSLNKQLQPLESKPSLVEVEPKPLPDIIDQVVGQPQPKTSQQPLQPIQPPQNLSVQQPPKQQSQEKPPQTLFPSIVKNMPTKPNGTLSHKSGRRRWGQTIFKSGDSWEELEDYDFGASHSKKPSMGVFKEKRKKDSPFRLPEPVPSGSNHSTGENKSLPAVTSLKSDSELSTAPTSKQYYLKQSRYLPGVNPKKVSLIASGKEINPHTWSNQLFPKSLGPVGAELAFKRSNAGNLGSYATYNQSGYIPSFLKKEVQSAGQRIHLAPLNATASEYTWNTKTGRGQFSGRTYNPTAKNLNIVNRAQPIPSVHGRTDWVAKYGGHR

HCK = molecular target: T10, HCK (Homo sapiens, UniProt P08631)
T10 construct: purchased DiscoverX (KINOMEscan)

MLK3 = molecular target: T11, MLK3 (Homo sapiens, UniProt Q16584)
T11 construct: purchased DiscoverX (KINOMEscan)
T11 sequence (Q16584 whole entry): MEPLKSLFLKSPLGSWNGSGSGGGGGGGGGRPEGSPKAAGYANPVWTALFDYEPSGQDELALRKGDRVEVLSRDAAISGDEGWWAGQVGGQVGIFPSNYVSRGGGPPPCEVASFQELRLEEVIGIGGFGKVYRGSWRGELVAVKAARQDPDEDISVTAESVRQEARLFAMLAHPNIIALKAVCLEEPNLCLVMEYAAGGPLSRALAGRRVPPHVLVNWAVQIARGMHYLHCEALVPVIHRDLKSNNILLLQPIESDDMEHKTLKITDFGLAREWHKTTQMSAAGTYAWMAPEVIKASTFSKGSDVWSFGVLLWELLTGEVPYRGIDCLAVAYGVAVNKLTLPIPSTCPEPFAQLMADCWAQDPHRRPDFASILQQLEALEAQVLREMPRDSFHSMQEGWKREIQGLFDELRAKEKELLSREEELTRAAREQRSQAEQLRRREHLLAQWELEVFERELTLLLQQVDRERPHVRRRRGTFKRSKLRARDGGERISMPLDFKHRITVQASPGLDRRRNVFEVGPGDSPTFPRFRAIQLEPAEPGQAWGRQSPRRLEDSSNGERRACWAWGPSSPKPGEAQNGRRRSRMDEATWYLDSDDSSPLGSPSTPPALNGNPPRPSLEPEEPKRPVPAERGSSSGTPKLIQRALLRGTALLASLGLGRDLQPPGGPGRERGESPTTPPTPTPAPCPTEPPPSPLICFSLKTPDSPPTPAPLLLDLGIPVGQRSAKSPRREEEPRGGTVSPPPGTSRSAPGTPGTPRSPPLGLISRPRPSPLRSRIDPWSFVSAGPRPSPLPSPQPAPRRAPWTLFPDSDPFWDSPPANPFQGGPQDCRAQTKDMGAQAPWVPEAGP

EGFR(G719S) = molecular target: T12, EGFR(G719S) (Homo sapiens, UniProt P00533, G719S)
T12 construct: purchased DiscoverX (KINOMEscan)

SRPK2 = molecular target: T13, SRPK2 (Homo sapiens, UniProt P78362)
T13 construct: purchased DiscoverX (KINOMEscan)

CAMK1G = molecular target: T14, CAMK1G (Homo sapiens, UniProt Q96NX5)
T14 construct: purchased DiscoverX (KINOMEscan)

CDK7 = molecular target: T15, CDK7 (Homo sapiens, UniProt P50613)
T15 construct: purchased DiscoverX (KINOMEscan)

CAMK2B = molecular target: T16, CAMK2B (Homo sapiens, UniProt Q13554)
T16 construct: purchased DiscoverX (KINOMEscan)

MLK1 = molecular target: T17, MLK1 (Homo sapiens, UniProt P80192)
T17 construct: purchased DiscoverX (KINOMEscan)

EGFR(L858R,T790M) = molecular target: T18, EGFR(L858R,T790M) (Homo sapiens, UniProt P00533, L858R/T790M)
T18 construct: purchased DiscoverX (KINOMEscan)
T18 sequence (P00533 25-1210 T790M/L858R): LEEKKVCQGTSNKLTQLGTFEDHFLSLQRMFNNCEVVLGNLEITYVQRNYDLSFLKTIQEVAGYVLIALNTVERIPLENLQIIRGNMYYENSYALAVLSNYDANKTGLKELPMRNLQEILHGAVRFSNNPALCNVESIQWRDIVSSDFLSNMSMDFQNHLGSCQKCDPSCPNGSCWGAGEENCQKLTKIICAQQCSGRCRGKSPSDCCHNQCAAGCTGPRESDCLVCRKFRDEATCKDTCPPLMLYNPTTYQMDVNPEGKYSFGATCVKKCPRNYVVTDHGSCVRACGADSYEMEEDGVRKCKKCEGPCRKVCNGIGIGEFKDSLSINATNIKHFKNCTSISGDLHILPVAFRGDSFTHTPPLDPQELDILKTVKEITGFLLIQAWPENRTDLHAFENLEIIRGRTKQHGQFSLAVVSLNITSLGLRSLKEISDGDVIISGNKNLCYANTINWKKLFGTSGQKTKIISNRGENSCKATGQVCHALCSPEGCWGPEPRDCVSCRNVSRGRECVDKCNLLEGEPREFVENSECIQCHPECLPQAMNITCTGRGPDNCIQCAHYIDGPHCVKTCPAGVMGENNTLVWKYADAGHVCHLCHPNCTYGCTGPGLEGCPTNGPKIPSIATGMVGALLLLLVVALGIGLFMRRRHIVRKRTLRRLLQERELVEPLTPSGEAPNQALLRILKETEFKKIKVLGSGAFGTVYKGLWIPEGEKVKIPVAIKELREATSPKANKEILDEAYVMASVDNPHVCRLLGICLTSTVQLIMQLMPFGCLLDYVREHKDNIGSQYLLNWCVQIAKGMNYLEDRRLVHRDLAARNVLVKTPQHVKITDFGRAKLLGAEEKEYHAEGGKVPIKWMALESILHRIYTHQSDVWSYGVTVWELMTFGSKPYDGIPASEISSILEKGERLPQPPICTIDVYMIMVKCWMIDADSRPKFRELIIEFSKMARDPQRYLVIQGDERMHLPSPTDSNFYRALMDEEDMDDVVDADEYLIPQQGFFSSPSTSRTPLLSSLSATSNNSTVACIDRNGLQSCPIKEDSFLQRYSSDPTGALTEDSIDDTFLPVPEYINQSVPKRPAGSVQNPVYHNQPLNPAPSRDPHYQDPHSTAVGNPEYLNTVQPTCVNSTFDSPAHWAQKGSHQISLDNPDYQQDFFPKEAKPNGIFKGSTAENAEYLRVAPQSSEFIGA

STK33 = molecular target: T19, STK33 (Homo sapiens, UniProt Q9BYT3)
T19 construct: purchased DiscoverX (KINOMEscan)
T19 sequence (Q9BYT3 whole entry): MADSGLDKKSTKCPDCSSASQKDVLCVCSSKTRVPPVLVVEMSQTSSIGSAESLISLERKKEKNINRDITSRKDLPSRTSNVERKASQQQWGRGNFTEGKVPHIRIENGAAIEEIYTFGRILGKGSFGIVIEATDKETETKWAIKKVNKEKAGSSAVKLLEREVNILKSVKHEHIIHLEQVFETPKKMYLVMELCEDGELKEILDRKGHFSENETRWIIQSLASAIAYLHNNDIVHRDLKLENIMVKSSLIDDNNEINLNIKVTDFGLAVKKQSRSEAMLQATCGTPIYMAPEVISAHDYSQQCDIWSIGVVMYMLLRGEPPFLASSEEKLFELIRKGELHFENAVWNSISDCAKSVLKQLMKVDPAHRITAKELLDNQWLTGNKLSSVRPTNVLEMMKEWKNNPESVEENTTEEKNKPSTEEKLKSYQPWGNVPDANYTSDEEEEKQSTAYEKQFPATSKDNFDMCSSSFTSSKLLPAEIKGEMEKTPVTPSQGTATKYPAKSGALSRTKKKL

FLT3(D835H) = molecular target: T20, FLT3(D835H) (Homo sapiens, UniProt P36888, D835H)
T20 construct: purchased DiscoverX (KINOMEscan)

NDR2 = molecular target: T21, NDR2 (Homo sapiens, UniProt Q9Y2H1)
T21 construct: purchased DiscoverX (KINOMEscan)

DRAK2 = molecular target: T22, DRAK2 (Homo sapiens, UniProt O94768)
T22 construct: purchased DiscoverX (KINOMEscan)

FGFR2 = molecular target: T23, FGFR2 (Homo sapiens, UniProt P21802)
T23 construct: purchased DiscoverX (KINOMEscan)

CDK2 = molecular target: T24, CDK2 (Homo sapiens, UniProt P24941)
T24 construct: purchased DiscoverX (KINOMEscan)

FER = molecular target: T25, FER (Homo sapiens, UniProt P16591)
T25 construct: purchased DiscoverX (KINOMEscan)

MET(M1250T) = molecular target: T26, MET(M1250T) (Homo sapiens, UniProt P08581, M1250T)
T26 construct: purchased DiscoverX (KINOMEscan)

TEC = molecular target: T27, TEC (Homo sapiens, UniProt P42680)
T27 construct: purchased DiscoverX (KINOMEscan)

ERBB3 = molecular target: T28, ERBB3 (Homo sapiens, UniProt P21860)
T28 construct: purchased DiscoverX (KINOMEscan)

[1] = molecular target: T29, JAK1(JH2domain-pseudokinase) (Homo sapiens, UniProt P23458)
T29 construct: JAK1(JH2domain-pseudokinase); purchased DiscoverX (KINOMEscan)

[2] = molecular target: T30, ABL1(T315I)-nonphosphorylated (Homo sapiens, UniProt P00519, T315I)
T30 construct: purchased DiscoverX (KINOMEscan)

EIF2AK1 = molecular target: T31, EIF2AK1 (Homo sapiens, UniProt Q9BQI3)
T31 construct: purchased DiscoverX (KINOMEscan)

MAP3K15 = molecular target: T32, MAP3K15 (Homo sapiens, UniProt Q6ZN16)
T32 construct: purchased DiscoverX (KINOMEscan)

MAP4K3 = molecular target: T33, MAP4K3 (Homo sapiens, UniProt Q8IVH8)
T33 construct: purchased DiscoverX (KINOMEscan)

FLT3 = molecular target: T34, FLT3 (Homo sapiens, UniProt P36888)
T34 construct: purchased DiscoverX (KINOMEscan)

MAST1 = molecular target: T35, MAST1 (Homo sapiens, UniProt Q9Y2H9)
T35 construct: purchased DiscoverX (KINOMEscan)

MINK = molecular target: T36, MINK (Homo sapiens, UniProt Q8N4C8)
T36 construct: purchased DiscoverX (KINOMEscan)
T36 sequence (Q8N4C8 whole entry): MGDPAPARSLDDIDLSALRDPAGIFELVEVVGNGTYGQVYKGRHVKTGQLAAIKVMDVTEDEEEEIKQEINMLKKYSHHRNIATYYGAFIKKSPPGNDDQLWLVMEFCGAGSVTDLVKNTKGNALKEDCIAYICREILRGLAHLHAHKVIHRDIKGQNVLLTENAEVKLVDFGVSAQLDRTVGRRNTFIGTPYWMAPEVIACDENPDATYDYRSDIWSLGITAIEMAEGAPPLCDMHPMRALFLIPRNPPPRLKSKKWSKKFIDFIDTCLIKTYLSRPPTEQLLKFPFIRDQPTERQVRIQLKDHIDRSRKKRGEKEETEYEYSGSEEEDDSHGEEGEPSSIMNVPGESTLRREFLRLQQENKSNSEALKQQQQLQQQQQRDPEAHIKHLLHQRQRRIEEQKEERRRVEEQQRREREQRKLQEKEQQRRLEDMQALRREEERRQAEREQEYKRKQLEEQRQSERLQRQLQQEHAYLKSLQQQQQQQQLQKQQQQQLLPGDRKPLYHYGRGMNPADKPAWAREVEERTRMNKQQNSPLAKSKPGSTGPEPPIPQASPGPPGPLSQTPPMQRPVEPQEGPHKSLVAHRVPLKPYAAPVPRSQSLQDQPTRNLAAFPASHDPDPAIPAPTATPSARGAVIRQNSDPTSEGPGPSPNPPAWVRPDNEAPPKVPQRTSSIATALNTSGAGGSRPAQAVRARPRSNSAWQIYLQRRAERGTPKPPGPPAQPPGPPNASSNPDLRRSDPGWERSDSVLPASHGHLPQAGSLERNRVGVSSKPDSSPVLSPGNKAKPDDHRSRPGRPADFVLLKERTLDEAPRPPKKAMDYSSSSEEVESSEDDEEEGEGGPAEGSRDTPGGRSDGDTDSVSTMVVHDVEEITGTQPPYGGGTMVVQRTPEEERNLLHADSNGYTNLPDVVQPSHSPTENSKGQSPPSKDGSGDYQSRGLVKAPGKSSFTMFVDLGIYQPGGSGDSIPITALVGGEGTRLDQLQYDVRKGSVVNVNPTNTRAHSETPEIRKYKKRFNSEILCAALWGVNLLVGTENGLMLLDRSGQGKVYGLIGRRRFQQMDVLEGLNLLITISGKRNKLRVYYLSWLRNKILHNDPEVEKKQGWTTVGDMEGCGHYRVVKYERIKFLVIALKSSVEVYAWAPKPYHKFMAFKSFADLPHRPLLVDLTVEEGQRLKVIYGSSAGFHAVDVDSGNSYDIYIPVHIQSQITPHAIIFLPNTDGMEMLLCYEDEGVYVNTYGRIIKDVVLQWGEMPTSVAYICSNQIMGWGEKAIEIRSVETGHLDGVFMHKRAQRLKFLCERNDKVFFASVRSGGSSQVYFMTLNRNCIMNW

NEK1 = molecular target: T37, NEK1 (Homo sapiens, UniProt Q96PY6)
T37 construct: purchased DiscoverX (KINOMEscan)

With `COc1cc(/C=C2\N=C(N)NC2=O)ccc1O` [Polyandrocarpamine A] the Score (EPHA3) was 87, the Score (EPHB3) was 100 and the Score (NEK3) was 100. For the same molecule, the Score (EPHB4) was 100, the Score (ERK3) was 82 and the Score (OSR1) was 100. The Score (CDC2L5) was 100, the Score (DMPK) was 100 and the Score (MAK) was 91. For the same molecule, the Score (HCK) was 100, the Score (MLK3) was 100 and the Score (EGFR(G719S)) was 100. For the same molecule, the Score (SRPK2) was 100, the Score (CAMK1G) was 100 and the Score (CDK7) was 100. The Score (CAMK2B) was 90, the Score (MLK1) was 100 and the Score (EGFR(L858R,T790M)) was 100. It also gave a Score (STK33) of 100, a Score (FLT3(D835H)) of 94 and a Score (NDR2) of 91. The Score (DRAK2) was 51, the Score (FGFR2) was 100 and the Score (CDK2) was 91. For the same molecule, the Score (FER) was 100, the Score (MET(M1250T)) was 97 and the Score (TEC) was 98. It also gave a Score (ERBB3) of 100, a Score [1] of 92 and a Score [2] of 67. For the same molecule, the Score (EIF2AK1) was 100, the Score (MAP3K15) was 100 and the Score (MAP4K3) was 78. For the same molecule, the Score (FLT3) was 100, the Score (MAST1) was 100 and the Score (MINK) was 100. It also gave a Score (NEK1) of 100.
